Experiments:
[1] = Solubility noted on work-up of the tetraol; assay type: physicochemical
Source text: THP-protected bromo alcohol XA was converted into the corresponding Grignard reagent XB following the standard procedure (Vogel, A. I. “Vogel's Textbook of Practical Organic Chemistry”, 5th Edition, Longman, England, 1989, p. 535). Further coupling of this Grignard reagent in situ with succinic dialdehyde Z prepared by acid-catalyzed ring-opening of commercially available 2,5-dimethoxytetrahydrofuran Y (Fakstorp, J.; Raleigh, D.; Schniepp, L. E. J. Am. Chem. Soc., 1950, 72, 869, House, H. O.; Cronin, T. H. J. Org. Chem., 1965, 30, 1061) at 0 to 5° C. occurs smoothly to give the bis(THP-protected) tetraol XC in high yield (92% after flash column chromatography purification). Acidic hydrolysis of XC in methanol/aqueous H2SO4 was completed in two hours to afford tetraol XI). The product is insoluble in dichloromethane and diethyl ether and could be purified by washing with one of these solvents.

obese female Zucker rats = test: Oral daily treatment of chow fed obese female Zucker rats for fourteen days: serum lipids, glycemic indicators, body weight; assay type: in vivo, rat; details: 14 days, n=4
Description: In a number of different experiments, illustrative compounds of the invention are administered daily at a dose of up to 100 mg/kg to chow fed obese female Zucker rats for fourteen days in the morning by oral gavage in 1.5% carboxymethylcellulose/0.2% Tween 20 or 20% ethanol/80% polyethylene glycol (dosing vehicles). Animals are weighed daily. Animals are allowed free access to rodent chow and water throughout the study except on days of blood sampling where food is restricted for six hours prior to blood sampling. Blood glucose is determined after the 6 hour fast in the afternoon without anesthesia from a tail vein. Serum is also prepared from pretreatment blood samples subsequently obtained from the orbital venous plexus (with O2/CO2 anesthesia) and following the fourteenth dose at sacrifice from the heart following O2/CO2 anesthesia. Serums are assayed for lipoprotein cholesterol profiles, triglycerides, total cholesterol, Non-HDL cholesterol, HDL cholesterol, the ratio of HDL cholesterol to that of Non-HDL cholesterol, insulin, non-esterified fatty acids, and beta-hydroxy butyric acid. The percent body weight gain and the ratio of liver to body weight is also determined. These are shown as absolute values or as a percent change of the pretreatment values in Table 1

primary rat hepatocytes = test: Inhibition of lipid synthesis ([1-14C]-acetate incorporation) in primary cultures of rat hepatocytes; assay type: cell-based; details: Hepatocyte, 4 hours, 0-300 μM
Description: Compounds were tested for inhibition of lipid synthesis in primary cultures of rat hepatocytes. Male Sprague-Dawley rats were anesthetized with intraperitoneal injection of sodium pentobarbital (80 mg/kg). Rat hepatocytes were isolated essentially as described by the method of Seglen (Seglen, P. O. Hepatocyte suspensions and cultures as tools in experimental carcinogenesis. J. Toxicol. Environ. Health 1979, 5, 551-560). Hepatocytes were suspended in Dulbecco's Modified Eagles Medium containing 25 mM D-glucose, 14 mM HEPES, 5 mM L-glutamine, 5 mM leucine, 5 mM alanine, 10 mM lactate, 1 mM pyruvate, 0.2% bovine serum albumin, 17.4 mM non-essential amino acids, 20% fetal bovine serum, 100 nM insulin and 20 μg/mL gentamycin) and plated at a density of 1.5×10^5 cells/cm^2 on collagen-coated 96-well plates. Four hours after plating, media was replaced with the same media without serum. […] Lipid synthesis incubation conditions were initially assessed to ensure the linearity of [1-^14C])-acetate incorporation into hepatocyte lipids for up to 4 hours. Hepatocyte lipid synthesis inhibitory activity was assessed during incubations in the presence of 0.25 μCi [1-^14C]-acetate/well (final radiospecific activity in assay is 1 Ci/mol) and 0, 1, 3, 10, 30, 100 or 300 μM of compounds for 4 hours. […] Lipid radioactivity was assessed by scintillation spectroscopy in a Packard TopCount NXT.

| Compound | Solubility in water [1] | melting point [°C] | % wt. gain (obese female Zucker rats; 100 mg/kg/day oral gavage) [%] | Glucose, Percent of Pre-treatment (obese female Zucker rats; blood glucose after 6 hour fast, 100 mg/kg/day oral) [%] | BHA, Percent of Pre-treatment (obese female Zucker rats; serum beta-hydroxy butyric acid, 100 mg/kg/day oral) [%] | NEFA, Percent of Pre-treatment (obese female Zucker rats; serum non-esterified fatty acids, 100 mg/kg/day oral) [%] | HDL-C/non-HDL-C (obese female Zucker rats; serum ratio, 100 mg/kg/day oral) | TC, Percent of Pre-treatment (obese female Zucker rats; serum total cholesterol, 100 mg/kg/day oral) [%] | TG, Percent of Pre-treatment (obese female Zucker rats; serum triglycerides, 100 mg/kg/day oral) [%] | HDL-C, Percent of Pre-treatment (obese female Zucker rats; serum, 100 mg/kg/day oral) [%] | Insulin, Percent of Pre-treatment (obese female Zucker rats; serum, 100 mg/kg/day oral) [%] | Non-HDL-C, Percent of Pre-treatment (obese female Zucker rats; serum, 100 mg/kg/day oral) [%] | IC50 (primary rat hepatocytes) [nM] |
| --- | --- | --- | --- | --- | --- | --- | --- | --- | --- | --- | --- | --- | --- |
| CC(C)(CO)CCCC(O)CCC(O)CCCC(C)(C)CO (centres unmarked) [XI), 2,2,13,13-Tetramethyltetradecan-1,6,9,14-tetraol] | practically insoluble | 96 to 97 | – | – | – | – | – | – | – | – | – | – | – |
| CC(C)(CO)CCCC(O)CCC(O)CCCC(C)(C)CO (centres unmarked) [Compound A] | – | – | 13 | 11 | 73 | 143 | 1 | 4 | 43 | −19 | 70 | 30 | 1100 |
| CC(C)(CO)CCCC(O)CCCC(O)CCCC(C)(C)CO (centres unmarked) [Compound 6.2.2, 2,2,14,14-Tetramethylpentadecane-1,6,10,15-tetraol] | – | 85 to 86 | – | – | – | – | – | – | – | – | – | – | – |
